These results are taken from patent US10975077B2 (Novira Therapeutics, Inc., priority 2016, dated 2021).

One assay concerns HBV (encapsidated HBV DNA, HepG2.2.15 cells). Briefly: HBV replication inhibition assay, BDNA assay in HepG2.2.15 cells. Type of assay: cell-based. The conditions noted are these: Activity in BDNA-assay. How it is done: HBV replication inhibition by the disclosed compounds were determined in cells infected or transfected with HBV, or cells with stably integrated HBV, such as HepG2.2.15 cells (Sells et al. 1987). In this example, HepG2.2.15 cells were maintained in cell culture medium containing 10% fetal bovine serum (FBS), Geneticin, L-glutamine, penicillin and streptomycin. HepG2.2.15 cells were seeded in 96-well plates at a density of 40,000 cells/well and were treated with serially diluted compounds at a final DMSO concentration of 0.5% either alone or in combination by adding drugs in a checker box format. Cells were incubated with compounds for three days, after which medium was removed and fresh medium containing compounds was added to cells and incubated for another three days. At day 6, supernatant was removed and treated with DNase at 37° C. for 60 minutes, followed by enzyme inactivation at 75° C. for 15 minutes. Encapsidated HBV DNA was released from the virions and covalently linked HBV polymerase by incubating in lysis buffer (Affymetrix QS0010) containing 2.5 μg proteinase K at 50° C. for 40 minutes. HBV DNA was denatured by addition of 0.2 M NaOH and detected using a branched DNA (BDNA) QuantiGene assay kit according to manufacturer recommendation (Affymetrix). HBV DNA levels were also quantified using qPCR, based on amplification of encapsidated HBV DNA extraction with QuickExtraction Solution (Epicentre Biotechnologies) and amplification of HBV DNA using HBV specific PCR probes that can hybridize to HBV DNA and a fluorescently labeled probe for quantitation. In addition, cell viability of HepG2.2.15 cells incubated with test compounds alone or in combination was determined by using CellTitre-Glo reagent according to the manufacturer protocol (Promega). The mean background signal from wells containing only culture medium was subtracted from all other samples, and percent inhibition at each compound concentration was calculated by normalizing to signals from HepG2.2.15 cells treated with 0.5% DMSO using equation E1. % inhibition=(DMSOave−Xi)/DMSOave×100% E1: where DMSOave is the mean signal calculated from the wells that were treated with DMSO control (0% inhibition control) and Xi is the signal measured from the individual wells. EC50 values, effective concentrations that achieved 50% inhibitory effect, were determined by non-linear fitting using Graphpad Prism software (San Diego, Calif.) and equation E2: Y=Y min+(Y max −Y min)/(1+10(Log EC50−X)×HillSlope) E2: […]
where Y represents percent inhibition values and X represents the logarithm of compound concentrations.
Selected disclosed compounds were assayed in the HBV replication assay (BDNA assay), as described above and a representative group of these active compounds is shown in Table 6.
Broadly, the EC50 is the midpoint of the concentration-response curve. In the case of `CN1CC([S+](C)[O-])Cn2nc3c(c2C1=O)CN(C(=O)Nc1ccc(F)c(Cl)c1)CC3` (single isomer, unassigned) [Compound 026B, N-(3-chloro-4-fluoro-phenyl)-10-methyl-8-methylsulfinyl-11-oxo-1,3,4,7,8,9-hexahydropyrido[2,3]pyrazolo[2,4-b][1,4]diazepine-2-carboxamide], the EC50 lay within 500 to 1000 nM.
For the compound `C[C@@H]1Cc2nn3c(c2CN1C(=O)Nc1ccc(F)c(Cl)c1)C(=O)N(C)CC(C)(F)C3` (single isomer, unassigned) [Compound 079_D2, (3R,8S*)—N-(3-chloro-4-fluorophenyl)-8-fluoro-3,8,10-trimethyl-11-oxo-1,3,4,7,8,9,10,11-octahydro-2H-pyrido[4′,3′:3,4]pyrazolo[1,5-a][1,4]diazepine-2-carboxamide], the EC50 lay within 1 to 100 nM.
With `CC1CN(C)C(=O)c2c3c(nn2C1)C[C@@H](C)N(C(=O)Nc1ccc(F)c(Cl)c1)C3` (single isomer, unassigned) [Compound 080_D2, (3R,8R*)—N-(3-chloro-4-fluorophenyl)-3,8,10-trimethyl-11-oxo-3,4,8,9,10,11-hexahydro-1H-pyrido[4′,3′:3,4]pyrazolo[1,5-a][1,4]diazepine-2 (7H)-carboxamide], the EC50 lay within 1 to 100 nM.
Same read-out and setting: under `C[C@@H]1Cc2nn3c(c2CN1C(=O)Nc1ccc(F)c(C(F)(F)F)c1)C(=O)N(C)CC(CO)C3` (single isomer, unassigned) [Compound 081_D2, (3R,8R*)—N-(4-fluoro-3-(trifluoromethyl)phenyl)-8-(hydroxymethyl)-3,10-dimethyl-11-oxo-3,4,8,9,10,11-hexahydro-1H-pyrido[4′,3′:3,4]pyrazolo[1,5-a][1,4]diazepine-2 (7H)-carboxamide] stands 1 to 100 nM; under `C[C@@H]1Cc2nn3c(c2CN1C(=O)Nc1cc(C(F)(F)F)c(F)cc1F)C(=O)N(C)CC(CO)C3` (single isomer, unassigned) [Compound 082_D1, (3R,8S*)—N-(2,4-difluoro-5-(trifluoromethyl)phenyl)-8-(hydroxmethyl)-3,10-dimethyl-11-oxo-1,3,4,7,8,9,10,11-octahydro-2H-pyrido[4′,3′:3,4]pyrazolo[1,5-a][1,4]diazepine-2-carboxamide], 1 to 100 nM.
Same read-out and setting: under `C[C@@H]1Cc2nn3c(c2CN1C(=O)Nc1cc(C(F)(F)F)c(F)cc1F)C(=O)N(C)CC(CO)C3` (single isomer, unassigned) [Compound 082_D2, (3R,8R*)—N-(2,4-difluoro-5-(trifluoromethyl)phenyl)-8-(hydroxymethyl)-3,10-dimethyl-11-oxo-1,3,4,7,8,9,10,11-octahydro-2H-pyrido[4′,3′:3,4]pyrazolo[1,5-a][1,4]diazepine-2-carboxamide] stands 100 to 500 nM; under `C[C@@H]1Cc2nn3c(c2CN1C(=O)Nc1ccc(F)c(C(F)(F)F)c1F)C(=O)N(C)CC(CO)C3` (single isomer, unassigned) [Compound 083_D2, (3R,8R*)—N-(2,4-difluoro-3-(trifluoromethyl)phenyl)-8-(hydroxymethyl)-3,10-dimethyl-11-oxo-1,3,4,7,8,9,10,11-octahydro-2H-pyrido[4′,3′:3,4]pyrazolo[1,5-a][1,4] diazepine-2-carboxamide], 1 to 100 nM.
Regarding `C[C@@H]1Cc2nn3c(c2CN1C(=O)Nc1ccc(F)c(Br)c1F)C(=O)N(C)CC(CO)C3` (single isomer, unassigned) [Compound 084_D1, (3R,8S*)—N-(3-bromo-2,4-difluorophenyl)-8-(hydroxymethyl)-3,10-dimethyl-11-oxo-1,3,4,7,8,9,10,11-octahydro-2H-pyrido[4′,3′:3,4]pyrazolo[1,5-a][1,4]diazepine-2-carboxamide], the EC50 is 100 to 500 nM.
`C[C@@H]1Cc2nn3c(c2CN1C(=O)Nc1ccc(F)c(Br)c1F)C(=O)N(C)CC(CO)C3` (single isomer, unassigned) [Compound 084_D2, (3R,8R*)—N-(3-bromo-2,4-difluorophenyl)-8-(hydroxymethyl)-3,10-dimethyl-11-oxo-1,3,4,7,8,9,10,11-octahydro-2H-pyrido[4′,3′:3,4]pyrazolo[1,5-a][1,4]diazepine-2-carboxamide]: the EC50 is 1 to 100 nM.
As for `C[C@@H]1Cc2nn3c(c2CN1C(=O)Nc1cc(Br)c(F)cc1F)C(=O)N(C)CC(CO)C3` (single isomer, unassigned) [Compound 085_D2, (3R,8R*)—N-(5-bromo-2,4-difluorophenyl)-8-(hydroxymethyl)-3,10-dimethyl-11-oxo-1,3,4,7,8,9,10,11-octahydro-2H-pyrido[4′,3′:3,4]pyrazolo[1,5-a][1,4]diazepine-2-carboxamide], the EC50 lay within 1 to 100 nM.

Still in this assay, the particulars now being: Hepatitis B virus, HepG2.2.15, Activity in BDNA-assay.
Regarding `COC1CN(C)C(=O)c2c3c(nn2C1)CCN(C(=O)Nc1ccc(F)c(Cl)c1)C3` (single isomer, unassigned) [Compound 016B, (R*)—N-(3-chloro-4-fluorophenyl)-8-methoxy-10-methyl-11-oxo-3,4,8,9,10,11-hexahydro-1H-pyrido[4′,3′:3,4]pyrazolo[1,5-a][1,4]diazepine-2 (7H)-carboxamide], the EC50 is 1 to 100 nM.
Turning to `CN1CC([S+](C)[O-])Cn2nc3c(c2C1=O)CN(C(=O)Nc1ccc(F)c(Cl)c1)CC3` (single isomer, unassigned) [Compound 026A, N-(3-chloro-4-fluoro-phenyl)-10-methyl-8-methylsulfinyl-11-oxo-1,3,4,7,8,9-hexahydropyrido[2,3]pyrazolo[2,4-b][1,4]diazepine-2-carboxamide], the EC50 was over 1000 nM.
Take `C[C@@H]1Cc2nn3c(c2CN1C(=O)Nc1ccc(F)c(Cl)c1)C(=O)N(C)CC(C)(F)C3` (single isomer, unassigned) [Compound 079_D1, (3R,8R*)—N-(3-chloro-4-fluorophenyl)-8-fluoro-3,8,10-trimethyl-11-oxo-1,3,4,7,8,9,10,11-octahydro-2H-pyrido[4′,3′:3,4]pyrazolo[1,5-a][1,4]diazepine-2-carboxamide]: the EC50 lay within 1 to 100 nM.
With `CC1CN(C)C(=O)c2c3c(nn2C1)C[C@@H](C)N(C(=O)Nc1ccc(F)c(Cl)c1)C3` (single isomer, unassigned) [Compound 080_D1, (3R,8S*)—N-(3-chloro-4-fluorophenyl)-3,8,10-trimethyl-11-oxo-3,4,8,9,10,11-hexahydro-1H-pyrido[4′,3′,3,4]pyrazolo[1,5-a][1,4] diazepine-2 (7H)-carboxamide], the EC50 lay within 1 to 100 nM.
Regarding `C[C@@H]1Cc2nn3c(c2CN1C(=O)Nc1ccc(F)c(C(F)(F)F)c1)C(=O)N(C)CC(CO)C3` (single isomer, unassigned) [Compound 081_D1, (3R,8S*)—N-(4-fluoro-3-(trifluoromethyl)phenyl)-8-(hydroxymethyl)-3,10-dimethyl-11-oxo-3,4,8,9,10,11-hexahydro-1H-pyrido[4′,3′:3,4]pyrazolo[1,5-a][14]diazepine-2 (7H)-carboxamide], the EC50 fell in the range of 1 to 100 nM.
`C[C@@H]1Cc2nn3c(c2CN1C(=O)Nc1ccc(F)c(C(F)(F)F)c1F)C(=O)N(C)CC(CO)C3` (single isomer, unassigned) [Compound 083_D1, (3R,8S*)—N-(2,4-difluoro-3-(trifluoromethyl)phenyl)-8-(hydroxymethyl)-3,10-dimethyl-11-oxo-1,3,4,7,8,9,10,11-octahydro-2H-pyrido[4′,3′:3,4]pyrazolo[1,5-a][1,4] diazepine-2-carboxamide]: the EC50 is 1 to 100 nM.
With `C[C@@H]1Cc2nn3c(c2CN1C(=O)Nc1cc(Br)c(F)cc1F)C(=O)N(C)CC(CO)C3` (single isomer, unassigned) [Compound 085_D1, (3R,8 S*)—N-(5-bromo-2,4-difluorophenyl)-8-(hydroxymethyl)-3,10-dimethyl-11-oxo-1,3,4,7,8,9,10,11-octahydro-2H-pyrido[4′,3′:3,4]pyrazolo[1,5-a][1,4]diazepine-2-carboxamide], the EC50 is 1 to 100 nM.
For `C[C@@H]1Cc2nn3c(c2CN1C(=O)Nc1ccc(F)c(Br)c1)C(=O)N(C)CC(CO)C3` (single isomer, unassigned) [Compound 086_D1, (3R,8S*)—N-(3-bromo-4-fluorophenyl)-8-(hydroxymethyl)-3,10-dimethyl-11-oxo-1,3,4,7,8,9,10,11-octahydro-2H-pyrido[4′,3′:3,4]pyrazolo[1,5-a][1,4]diazepine-2-carboxamide], the EC50 fell in the range of 1 to 100 nM.
